How the values were obtained:
Test in all cases: nitrocefin hydrolysis, spectrophotometric; Ki from IC50 by Cheng-Prusoff
Format in all cases: biochemical
KPC-2 = target: T1, KPC-2 (Klebsiella pneumoniae, UniProt Q9F663)
T1 construct: recombinant, 'full-length KPC-2 enzyme'
Source text: nitrocefin hydrolysis, spectrophotometric; Ki from IC50 by Cheng-Prusoff on KPC-2

VIM-1 = target: T2, VIM-1 (Pseudomonas aeruginosa, UniProt Q9XAY4)
T2 construct: gene blaVIM; recombinant untagged, pET-24a(+) blaVIM-1 (pBPAQND2009), E. coli BL21(DE3); High Q and Superdex 75; zinc-supplemented buffers

IMP-1 = target: T3, IMP-1 (Pseudomonas aeruginosa, UniProt Q79MP6)
T3 construct: gene blaIMP-1; codon-optimised wild type gene, pETite N-His SUMO Kan, E. coli Lemo21(DE3); His-SUMO cleaved by SUMO protease; IMAC and Superose 12
T3 sequence (Q79MP6 19-246 limits assumed): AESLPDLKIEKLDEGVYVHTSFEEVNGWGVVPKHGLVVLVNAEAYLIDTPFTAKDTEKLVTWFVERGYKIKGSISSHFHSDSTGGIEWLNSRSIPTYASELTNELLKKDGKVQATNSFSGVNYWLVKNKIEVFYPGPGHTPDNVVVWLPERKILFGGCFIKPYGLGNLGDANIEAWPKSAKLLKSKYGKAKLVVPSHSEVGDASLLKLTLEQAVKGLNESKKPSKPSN

T1 sequence (Q9F663 25-293 limits assumed): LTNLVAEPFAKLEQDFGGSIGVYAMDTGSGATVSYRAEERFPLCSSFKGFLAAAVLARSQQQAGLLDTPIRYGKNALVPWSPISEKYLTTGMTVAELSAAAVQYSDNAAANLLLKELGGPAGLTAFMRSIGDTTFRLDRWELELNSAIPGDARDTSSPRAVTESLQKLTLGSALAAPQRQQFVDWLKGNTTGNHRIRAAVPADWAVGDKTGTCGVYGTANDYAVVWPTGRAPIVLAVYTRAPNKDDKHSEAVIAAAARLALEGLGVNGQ

Row | SMILES | Ki (KPC-2) [µM] | Ki (VIM-1) [µM] | Ki (IMP-1) [µM]
1 | CCN(CC)c1ccc(CNn2cn[nH]c2=S)cc1 [1d, 4-((4-(diethylamino)benzyl)amino)-2,4-dihydro-3H-1,2,4-triazole-3-thione] | 263 ± 13 | 224 ± 11 | 173 ± 6
2 | S=c1[nH]ncn1NCc1ccc2c(c1)OCO2 [1f, 4-((benzo[d][1,3]dioxol-5-ylmethyl)amino)-2,4-dihydro-3H-1,2,4-triazole-3-thione] | 138 ± 3 | 120 ± 4 | 125 ± 5
3 | Sc1nncn1/N=C/c1ccc(Br)cc1 [2b, 4-((4-bromobenzylidene)amino)-2,4-dihydro-3H-1,2,4-triazole-3-thione] | 158 ± 7 | 58 ± 2 | 285 ± 13
4 | S=c1[nH]ncn1/N=C/c1c[nH]c2ccccc12 [2g, 4-(((1H-indol-3-yl)methylene)amino)-2,4-dihydro-3H-1,2,4-triazole-3-thione] | 139 ± 4 | 95 ± 3 | 104 ± 4
